What all share (format): cell-based
The subject of one assay is K2P4.1 (TRAAK)^CG*. As to the kind of experiment: TEVC in Xenopus oocytes. The settings on record: 20 μM. The text has this: (§1) Mouse K2P2.1 (TREK-1) (Genbank accession number: NP_034737.2), mouse K2P10.1 (TREK-2) (NM_001316665.1), mouse K2P4.1 (TRAAK) (NM_008431.3), human K2P4.1 (TRAAK) (NM_033310.2) and mouse K2P18.1(TRESK) (NM_207261.3) were used for this study. Point mutations were introduced by site-directed mutagenesis using custom primers and confirmed by sequencing before use. For studies using Xenopus oocytes, K2P channels were subcloned into a previously reported pGEMHE/pMO vector (46). For expression in HEK293 cells, mouse K2P2.1 (TREK-1) and mutants were expressed from a previously described pIRES2-EGFP vector in HEK293 cells (46,47). K2P2.1 (TREK-1) tandems were constructed by connecting the open reading frames for the individual subunits with a linker encoding the […] (SEQ ID NO: 19) sequence. Tandems used for HEK293 cells included an N-terminal HA tag ([…] (SEQ ID NO: 20)) on the first subunit.
(§2) Xenopus laevis oocytes were harvested according to UCSF IACUC Protocol AN129690 and digested using collagenase (Worthington Biochemical Corporation, #LS004183, 0.8-1.0 mg/mL) in Ca^21-free ND96 (96 mM NaCl, 2 mM KCl, 3.8 mM MgCl2, 5 mM HEPES pH 7.4) immediately post-harvest, as previously reported (31,33). Oocytes were maintained at 18° C. in ND96 (96 mM NaCl, 2 mM KCl, 1.8 mM CaCl2, 2 mM MgCl2, 5 mM HEPES pH 7.4) supplemented with antibiotics (100 units mL^−1 penicillin, 100 μg mL^−1 streptomycin, 50 μg mL^−1 gentimycin) and used for experiments within one week of harvest.
(§3) Defolliculated stage V-VI oocytes were microinjected with 0.5-36 ng mRNA and currents were recorded within 16-48 h hours of injection.
(§4) For recordings, oocytes were impaled with borosilicate recording microelectrodes (0.4-2.0 MΩ resistance) backfilled with 3 M KCl and were subjected to constant perfusion of ND96 at a rate of 3 ml min^−1. Recording solutions containing K2P activators were prepared immediately prior to use from DMSO stocks (20-100 mM), with final DMSO concentrations of 0.1%. Currents were evoked from a −80 mV holding potential followed by a 300 ms ramp from −150 mV to +50 mV. Data were recorded using a GeneClamp 500B amplifier (MDS Analytical Technologies) controlled by pCLAMP8 software (Molecular Devices), and digitized at 1 kHz using Digidata 1332 Å digitizer (MDS Analytical Technologies). For each recording, control solution (ND96) was perfused over a single oocyte until current was stable before switching to solutions containing the test compounds at various concentrations. Representative traces and dose response plots were generated in GraphPad Prism 9.

The next assay addresses T1, Q258K K2P4.1 (TRAAK)^CG* (Homo sapiens, UniProt Q9NYG8, Q232K/S92C).
T1 construct: expressed in transfected cells; host or cells: Xenopus laevis oocytes injected with mRNA
T1 sequence (Q9NYG8 1-393 S92C/Q232K): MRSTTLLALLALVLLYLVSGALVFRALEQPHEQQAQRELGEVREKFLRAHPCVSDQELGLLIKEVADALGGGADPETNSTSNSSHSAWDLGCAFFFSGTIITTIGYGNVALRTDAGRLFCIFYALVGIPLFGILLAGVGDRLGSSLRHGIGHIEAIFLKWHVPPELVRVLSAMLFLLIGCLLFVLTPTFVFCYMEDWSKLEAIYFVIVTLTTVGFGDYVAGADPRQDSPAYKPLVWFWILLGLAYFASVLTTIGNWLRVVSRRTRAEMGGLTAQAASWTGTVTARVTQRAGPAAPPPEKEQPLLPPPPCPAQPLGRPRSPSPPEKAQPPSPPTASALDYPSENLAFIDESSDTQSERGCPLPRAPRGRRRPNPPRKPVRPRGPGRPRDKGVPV
As to the kind of experiment: TEVC in Xenopus oocytes. The note with it: 20 μM; after 2 min.
Description: as §1, §2, §3, §4

Assay [1] deals with T2, TREK-1^CG* (K2P2.1 (TREK-1) S131C) (Mus musculus, UniProt P97438, S146C).
T2 construct: expressed in transfected cells; host or cells: Xenopus laevis oocytes injected with mRNA
T2 sequence (P97438 1-411 isoform P97438-2 S131C): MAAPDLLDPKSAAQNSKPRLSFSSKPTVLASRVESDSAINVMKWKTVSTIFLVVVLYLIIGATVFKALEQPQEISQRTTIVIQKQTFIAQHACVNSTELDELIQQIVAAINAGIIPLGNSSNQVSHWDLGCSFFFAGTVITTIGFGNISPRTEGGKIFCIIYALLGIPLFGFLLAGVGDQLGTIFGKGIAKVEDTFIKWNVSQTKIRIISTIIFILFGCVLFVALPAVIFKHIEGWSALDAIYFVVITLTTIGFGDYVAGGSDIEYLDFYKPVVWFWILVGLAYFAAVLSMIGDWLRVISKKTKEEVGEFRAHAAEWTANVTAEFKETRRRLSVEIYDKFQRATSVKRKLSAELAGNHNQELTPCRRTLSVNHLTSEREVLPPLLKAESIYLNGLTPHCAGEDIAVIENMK
As to the kind of experiment: TEVC in Xenopus oocytes. The note with it: for Reversibility of activation on washout: 20 μM, Xenopus oocytes.
Description: as §1, §2, §3, §4

Assay [2] deals with T3, WT-CG* tandem K2P2.1 (TREK-1) (Mus musculus, UniProt P97438, S146C).
T3 construct: expressed in transfected cells; host or cells: Xenopus laevis oocytes injected with mRNA
T3 sequence (P97438 1-411 isoform P97438-2): T2 sequence (P97438 1-411 isoform P97438-2 S131C) with C131S
T3 sequence (P97438 1-411 isoform P97438-2 S131C): T2 sequence (P97438 1-411 isoform P97438-2 S131C)
As to the kind of experiment: TEVC in Xenopus oocytes, tandem channels. The note with it: 20 μM; for Fold-activation (I activator/I control): sequential application, Xenopus oocytes.
Description: as §1, §2, §3, §4

The target of assay [3] is T4, WT-WT tandem K2P2.1 (TREK-1) (Mus musculus, UniProt P97438).
T4 construct: expressed in transfected cells; host or cells: Xenopus laevis oocytes injected with mRNA
T4 sequence (P97438 1-411 isoform P97438-2) 1: T2 sequence (P97438 1-411 isoform P97438-2 S131C) with C131S
T4 sequence (P97438 1-411 isoform P97438-2) 2: T2 sequence (P97438 1-411 isoform P97438-2 S131C) with C131S
As to the kind of experiment: TEVC in Xenopus oocytes, tandem channels. The settings on record: 20 μM, sequential application.
Description: as §1, §2, §3, §4

Assay [4] has as its target T5, CG*-CG* tandem K2P2.1 (TREK-1) (Mus musculus, UniProt P97438, S146C).
T5 construct: expressed in transfected cells; host or cells: Xenopus laevis oocytes injected with mRNA
T5 sequence (P97438 1-411 isoform P97438-2 S131C) 1: T2 sequence (P97438 1-411 isoform P97438-2 S131C)
T5 sequence (P97438 1-411 isoform P97438-2 S131C) 2: T2 sequence (P97438 1-411 isoform P97438-2 S131C)
As to the kind of experiment: TEVC in Xenopus oocytes, tandem channels. The note with it: 20 μM, sequential application.
Description: as §1, §2, §3, §4

Assay [5] deals with T6, CG*-WT tandem K2P2.1 (TREK-1) (Mus musculus, UniProt P97438, S146C).
T6 construct: expressed in transfected cells; host or cells: Xenopus laevis oocytes injected with mRNA
T6 sequence (P97438 1-411 isoform P97438-2 S131C): T2 sequence (P97438 1-411 isoform P97438-2 S131C)
T6 sequence (P97438 1-411 isoform P97438-2): T2 sequence (P97438 1-411 isoform P97438-2 S131C) with C131S
As to the kind of experiment: TEVC in Xenopus oocytes, tandem channels. The note with it: 20 μM; for Fold-activation (I activator/I control): sequential application, Xenopus oocytes.
Description: as §1, §2, §3, §4

Substitutions are numbered along the chain they refer to.

For the molecule `O=C(NCc1ccc(Cl)cc1Cl)c1ccc(N2C(=O)C=CC2=O)cc1` [CAT335], the Reversibility of activation entry in the assay on K2P4.1 (TRAAK)^CG* (Xenopus oocytes) is “irreversibly activated”. Besides, the “Fold-activation (I activator/I control)” value with K2P4.1 (TRAAK)^CG* (after 2 min) was determined as 4.2±0.6 fold; in the assay on K2P4.1 (TRAAK)^CG* (longer application (6 min) to approach maximal activation) it was 11±1 fold; on Q258K K2P4.1 (TRAAK)^CG*, 7.4 ± 0.6 fold; in assay [2], 11.5 ± 1.1 fold; in assay [3], 1.37 ± 0.07 fold; in assay [4], 14.7 ± 0.9 fold. Also, the “Fold-activation (I activator/I control)” value in assay [5] is recorded as 8.9 ± 1.1 fold. In assay [1], the “Reversibility of activation on washout” value is “irreversible”. The “Fold-activation relative to activation of the CG*-CG* homodimer” value in assay [2] and in assay [5] was 60-80% each time.

A word on the EC50: it is the concentration needed to bring the measured effect to its halfway point. Higher therefore signals weaker potency. Take `CS(=O)(=O)Nc1ccc(C(=O)NCc2ccc(Cl)cc2Cl)cc1` [ML335, reference compound]: the “Fold-activation (I activator/I control)” value turned out to be 1.9±0.1 fold in the assay with K2P4.1 (TRAAK)^CG* (after 2 min); 3.7±0.3 fold on Q258K K2P4.1 (TRAAK)^CG*; 5.6 ± 0.4 fold in assay [2]; 6.8 ± 0.5 fold in assay [3]; 4.5±0.3 fold in assay [4]; 5.0±0.5 fold in assay [5]. In addition, in assay [1], the “Reversibility of activation on washout” value is listed as “immediate reversal”. In assay [1] (TEVC at 0 mV), the “Emax (IML335/Icontrol)” value is recorded as 9.6±0.8 fold activation. The concentration for a half-maximal effect (EC50) in assay [1] (TEVC at 0 mV, normalized to initial currents) is 18 ± 4 µM.
